Among the data in patent publication US20040266747A1, “Long chain fatty alcohol substituents in antineoplastic agents” (priority 2001, published 2004) are IC50 values, retold here.

Molecules are shown by their SMILES. Converted amounts (≈) assume the structure as drawn.

One test has as its system MHEC 5T. Kind of test: Cytotoxic activity, MTT colorimetric cell growth assay. Format: cell-based. The note with it: MHEC5-T; MHEC 5T cells, 72 h cultivation with agent, 37° C.; read-out: Cell line and cyctotoxic acivity IC50, MHEC 5T. Here is the method:
(§1) Experiments were performed in microtiter plates (2×10^4 cells/cm^2) at 37° C. After a precultivation period of 24 h the antineoplastic agent was added and cultivation was continued for 72 h. Cell growth was determined by a colorimetric assay based on the conversion of 3-(4,5-dimethyl-2-thiazolyl)-2,5-diphenyltetrazolium (MMT) to a blue formazan product using live mitochondria according to Mosmann, J. Immunolog. Methods 1983, 65, 55.

A further test relates to EA.hy 926. The description is as above. In kind it is cell-based. As to conditions: Homo sapiens; EA.hy 926 cells, 72 h cultivation with agent, 37° C.; read-out: Cell line and cyctotoxic acivity IC50, EA.hy 926. The method, then:
as §1

On to `O=c1[nH]c(=O)n(COCCCCCCCCCCCCO)cc1F` [Compound 3b, 5-Fluoro-1-((12′-hydroxydodecyloxy)-methyl)-uracil], for which the values for the IC50 in the test with MHEC 5T and in the test with EA.hy 926 were 14 µg/mL (≈ 40.6 µM) and 45 µg/mL (≈ 131 µM), respectively.
